Assays:
[1] = T>MIC in healthy human at plasma MIC of 0.5 ug/ml and compound dose of 0.3 […], iv after 0.5 hrs; assay type: functional
[2] = T>MIC in healthy human at epithelial lining fluid MIC of 4 ug/ml and compound dose of 0.3 […], iv after 3 hrs; assay type: functional
[3] = Tmax in epithelial lining fluid of healthy human at 0.3 […], iv after 0.5 hrs; assay type: ADME, organism-based
[4] = AUC in plasma of healthy human at 0.3 […], iv after 0.5 hrs; assay type: ADME, organism-based; parameters: time < 0.5 hr, route intravenous
[5] = AUC in epithelial lining fluid of healthy human at 0.3 […], iv after 0.5 hrs; assay type: ADME, organism-based; parameters: time < 0.5 hr, route intravenous
[6] = Drug level in epithelial lining fluid of healthy human at 0.3 […], iv after 3 hrs; assay type: ADME, organism-based; settings: read-out: Drug uptake
[7] = T>MIC in healthy human at plasma MIC of 0.25 ug/ml and compound dose of 0.3 […], iv after 0.5 hrs; assay type: functional
[8] = T>MIC in healthy human at plasma MIC of 4 ug/ml and compound dose of 0.3 […], iv after 3 hrs; assay type: functional
[9] = Tmax in plasma of healthy human at 0.3 […], iv after 0.5 hrs; assay type: ADME, organism-based
[10] = Cmax in epithelial lining fluid of healthy human at 0.3 […], iv after 3 hrs; assay type: ADME, organism-based; parameters: route intravenous
[11] = T>MIC in healthy human at epithelial lining fluid MIC of 4 ug/ml and compound dose of 0.3 […], iv after 0.5 hrs; assay type: functional
[12] = T>MIC in healthy human at epithelial lining fluid MIC of 1 ug/ml and compound dose of 0.3 […], iv after 0.5 hrs; assay type: functional
[13] = Cmax in plasma of healthy human at 0.3 […], iv after 3 hrs; assay type: ADME, organism-based; parameters: route intravenous
[14] = T>MIC in healthy human at plasma MIC of 0.25 ug/ml and compound dose of 0.3 […], iv after 3 hrs; assay type: functional
[15] = T>MIC in healthy human at plasma MIC of 1 ug/ml and compound dose of 0.3 […], iv after 0.5 hrs; assay type: functional
[16] = Drug level in epithelial lining fluid of healthy human at 0.3 […], iv after 0.5 hrs; assay type: ADME, organism-based; settings: read-out: Drug uptake
[17] = T>MIC in healthy human at epithelial lining fluid MIC of 0.5 ug/ml and compound dose of 0.3 […], iv after 0.5 hrs; assay type: functional
[18] = T>MIC in healthy human at epithelial lining fluid MIC of 0.5 ug/ml and compound dose of 0.3 […], iv after […] hrs; assay type: functional
[19] = AUC in plasma of healthy human at 0.3 […], iv after 3 hrs; assay type: ADME, organism-based; parameters: time < 3 hr, route intravenous
[20] = T>MIC in healthy human at epithelial lining fluid MIC of 0.25 ug/ml and compound dose of 0.3 […], iv after 3 hrs; assay type: functional
[21] = T>MIC in healthy human at plasma MIC of 2 ug/ml and compound dose of 0.3 […], iv after 3 hrs; assay type: functional
[22] = AUC in epithelial lining fluid of healthy human at 0.3 […], iv after 3 hrs; assay type: ADME, organism-based; parameters: time < 3 hr, route intravenous
[23] = T>MIC in healthy human at plasma MIC of 2 ug/ml and compound dose of 0.3 […], iv after 0.5 hrs; assay type: functional
[24] = T>MIC in healthy human at plasma MIC of 0.5 ug/ml and compound dose of 0.3 […], iv after 3 hrs; assay type: functional
[25] = T>MIC in healthy human at epithelial lining fluid MIC of 0.5 ug/ml and compound dose of 0.3 […], iv after 3 hrs; assay type: functional
[26] = Cmax in plasma of healthy human at 0.3 […], iv after 0.5 hrs; assay type: ADME, organism-based; parameters: route intravenous
[27] = T>MIC in healthy human at epithelial lining fluid MIC of 1 ug/ml and compound dose of 0.3 […], iv after 3 hrs; assay type: functional
[28] = Cmax in epithelial lining fluid of healthy human at 0.3 […], iv after 0.5 hrs; assay type: ADME, organism-based; parameters: route intravenous
[29] = T>MIC in healthy human at plasma MIC of 1 ug/ml and compound dose of 0.3 […], iv after 3 hrs; assay type: functional
[30] = T>MIC in healthy human at plasma MIC of 4 ug/ml and compound dose of 0.3 […], iv after 0.5 hrs; assay type: functional
[31] = T>MIC in healthy human at epithelial lining fluid MIC of 2 ug/ml and compound dose of 0.3 […], iv after 3 hrs; assay type: functional
[32] = Tmax in epithelial lining fluid of healthy human at 0.3 […], iv after 3 hrs; assay type: ADME, organism-based
[33] = T>MIC in healthy human at epithelial lining fluid MIC of 2 ug/ml and compound dose of 0.3 […], iv after 0.5 hrs; assay type: functional
[34] = Tmax in plasma of healthy human at 0.3 […], iv after 3 hrs; assay type: ADME, organism-based

C[C@@H](O)[C@H]1C(=O)N2C(C(=O)[O-])=C(SC3Cn4cnc[n+]4C3)[C@H](C)[C@H]12 (some centres undefined) [BIAPENEM]
fT>MIC [1]: 43.1% | fT>MIC [2]: 5.1% | Tmax [3]: 1.5 h | AUC at 0.5 h [4]: 25000 ng·h/mL | AUC at 0.5 h [5]: 6400 ng·h/mL | concentration at 3 h [6]: 1330 ng/mL | fT>MIC [7]: 53.5% | fT>MIC [8]: 22.3% | Tmax [9]: 0.5 h | Cmax [10]: 4360 ng/mL | fT>MIC [11]: 0% | fT>MIC [12]: 15.5% | Cmax [13]: 6800 ng/mL | fT>MIC [14]: 64.5% | fT>MIC [15]: 31.9% | concentration at 0.5 h [16]: 3480 ng/mL | fT>MIC [17]: 25.5% | fT>MIC [18]: 34.6% | AUC at 3 h [19]: 25400 ng·h/mL | fT>MIC [20]: 52.2% | fT>MIC [21]: 34.3% | AUC at 3 h [22]: 13300 ng·h/mL | fT>MIC [23]: 21.1% | fT>MIC [24]: 53.7% | fT>MIC [25]: 41.4% | Cmax [26]: 18100 ng/mL | fT>MIC [27]: 29.1% | Cmax [28]: 2350 ng/mL | fT>MIC [29]: 43.8% | fT>MIC [30]: 12.6% | fT>MIC [31]: 17.4% | Tmax [32]: 1.8 h | fT>MIC [33]: 5.8% | Tmax [34]: 3 h

Reference: ChEMBL document CHEMBL1649497, “Comparison of the pharmacodynamics of biapenem in bronchial epithelial lining fluid in healthy volunteers given half-hour and three-hour intravenous infusions” (Antimicrob Agents Chemother, 2009)
